Assay results: PubChem BioAssay (NCI)
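GI50 = concentration required for 50% inhibition of growth. The concentration for full growth arrest is given as TGI.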

Columns and labels:
Assay in all cases: NCI anticancer screen, dose series, 384-well format
BT-549 breast = test system: BT-549 breast
UACC-62 melanoma = test system: UACC-62 melanoma
NCI-H522 lung = test system: NCI-H522 lung
HCT-15 colon = test system: HCT-15 colon
HT29 colon = test system: HT29 colon
HOP-92 NSCLC = test system: HOP-92 NSCLC
LOX IMVI melanoma = test system: LOX IMVI melanoma
NCI-H460 NSCLC = test system: NCI-H460 NSCLC
NCI-H23 lung = test system: NCI-H23 lung
EKVX NSCLC = test system: EKVX NSCLC
NCI/ADR-RES ovarian = test system: NCI/ADR-RES ovarian
MALME-3M melanoma = test system: MALME-3M melanoma
HS 578T breast = test system: HS 578T breast
TK-10 renal = test system: TK-10 renal
ACHN renal = test system: ACHN renal
CCRF-CEM leukemia = test system: CCRF-CEM leukemia
MCF7 breast = test system: MCF7 breast
SF-539 CNS = test system: SF-539 CNS
CAKI-1 renal = test system: CAKI-1 renal
HL-60(TB) leukemia = test system: HL-60(TB) leukemia
IGROV1 ovarian = test system: IGROV1 ovarian
HCT-116 colon = test system: HCT-116 colon
HCC-2998 colon = test system: HCC-2998 colon
OVCAR-5 ovarian = test system: OVCAR-5 ovarian
SNB-19 CNS = test system: SNB-19 CNS
NCI-H322M lung = test system: NCI-H322M lung
RPMI-8226 leukemia = test system: RPMI-8226 leukemia
PC-3 prostate = test system: PC-3 prostate
SK-MEL-5 melanoma = test system: SK-MEL-5 melanoma
MOLT-4 leukemia = test system: MOLT-4 leukemia
COLO 205 colon = test system: COLO 205 colon
A549 NSCLC = test system: A549 NSCLC
SF-295 CNS = test system: SF-295 CNS
U251 glioblastoma = test system: U251 glioblastoma
M14 melanoma = test system: M14 melanoma
UO-31 renal = test system: UO-31 renal
MDA-MB-435 melanoma = test system: MDA-MB-435 melanoma
SW-620 colon = test system: SW-620 colon
SF-268 CNS = test system: SF-268 CNS
OVCAR-8 ovarian = test system: OVCAR-8 ovarian
SR leukemia = test system: SR leukemia
DU-145 prostate = test system: DU-145 prostate
MDA-MB-231 breast = test system: MDA-MB-231 breast
SNB-75 CNS = test system: SNB-75 CNS
UACC-257 melanoma = test system: UACC-257 melanoma
KM12 colon = test system: KM12 colon
T-47D breast = test system: T-47D breast
SK-OV-3 ovarian = test system: SK-OV-3 ovarian
SN12C renal = test system: SN12C renal
SK-MEL-28 melanoma = test system: SK-MEL-28 melanoma
A498 renal = test system: A498 renal
RXF 393 renal = test system: RXF 393 renal
786-0 renal = test system: 786-0 renal
OVCAR-3 ovarian = test system: OVCAR-3 ovarian
MDA-MB-468 breast = test system: MDA-MB-468 breast
OVCAR-4 ovarian = test system: OVCAR-4 ovarian
NCI-H226 lung = test system: NCI-H226 lung
HOP-62 NSCLC = test system: HOP-62 NSCLC

With `Nc1cccc2c1C(=O)N(C1CCC(=O)NC1=O)C2=O` (stereo not given) the GI50 (BT-549 breast) was over 100 µM, the TGI (BT-549 breast) was over 100 µM and the GI50 (UACC-62 melanoma) was over 100 µM. It also gave a TGI (UACC-62 melanoma) of over 100 µM, a GI50 (NCI-H522 lung) of over 100 µM and a TGI (NCI-H522 lung) of over 100 µM. The GI50 (HCT-15 colon) was over 100 µM, the TGI (HCT-15 colon) was over 100 µM and the GI50 (HT29 colon) was over 100 µM. For the same molecule, the TGI (HT29 colon) was over 100 µM, the GI50 (HOP-92 NSCLC) was over 100 µM and the TGI (HOP-92 NSCLC) was over 100 µM. For the same molecule, the TGI (LOX IMVI melanoma) was over 100 µM, the GI50 (NCI-H460 NSCLC) was over 100 µM and the TGI (NCI-H460 NSCLC) was over 100 µM. For the same molecule, the GI50 (NCI-H23 lung) was over 100 µM, the TGI (NCI-H23 lung) was over 100 µM and the GI50 (EKVX NSCLC) was over 100 µM. It also gave a TGI (EKVX NSCLC) of over 100 µM, a GI50 (NCI/ADR-RES ovarian) of over 100 µM and a TGI (NCI/ADR-RES ovarian) of over 100 µM. It also gave a GI50 (MALME-3M melanoma) of over 100 µM, a TGI (MALME-3M melanoma) of over 100 µM and a GI50 (HS 578T breast) of over 100 µM. It also gave a TGI (HS 578T breast) of over 100 µM, a GI50 (TK-10 renal) of over 100 µM and a TGI (TK-10 renal) of over 100 µM. It also gave a GI50 (ACHN renal) of over 100 µM, a TGI (ACHN renal) of over 100 µM and a GI50 (CCRF-CEM leukemia) of over 100 µM. It also gave a TGI (CCRF-CEM leukemia) of over 100 µM, a GI50 (MCF7 breast) of over 100 µM and a TGI (MCF7 breast) of over 100 µM. It also gave a GI50 (SF-539 CNS) of over 100 µM, a TGI (SF-539 CNS) of over 100 µM and a GI50 (CAKI-1 renal) of over 100 µM. The TGI (CAKI-1 renal) was over 100 µM, the GI50 (HL-60(TB) leukemia) was over 100 µM and the TGI (HL-60(TB) leukemia) was over 100 µM. The GI50 (IGROV1 ovarian) was over 100 µM, the TGI (IGROV1 ovarian) was over 100 µM and the GI50 (HCT-116 colon) was over 100 µM. It also gave a TGI (HCT-116 colon) of over 100 µM, a GI50 (HCC-2998 colon) of over 100 µM and a TGI (HCC-2998 colon) of over 100 µM. The GI50 (OVCAR-5 ovarian) was over 100 µM, the TGI (OVCAR-5 ovarian) was over 100 µM and the GI50 (SNB-19 CNS) was over 100 µM. The TGI (SNB-19 CNS) was over 100 µM, the GI50 (NCI-H322M lung) was over 100 µM and the TGI (NCI-H322M lung) was over 100 µM. The GI50 (RPMI-8226 leukemia) was 22.9 µM, the TGI (RPMI-8226 leukemia) was over 100 µM and the GI50 (PC-3 prostate) was over 100 µM. For the same molecule, the TGI (PC-3 prostate) was over 100 µM, the GI50 (SK-MEL-5 melanoma) was over 100 µM and the TGI (SK-MEL-5 melanoma) was over 100 µM. For the same molecule, the GI50 (MOLT-4 leukemia) was over 100 µM, the TGI (MOLT-4 leukemia) was over 100 µM and the GI50 (COLO 205 colon) was over 100 µM. For the same molecule, the TGI (COLO 205 colon) was over 100 µM, the GI50 (A549 NSCLC) was over 100 µM and the TGI (A549 NSCLC) was over 100 µM. For the same molecule, the GI50 (SF-295 CNS) was over 100 µM, the TGI (SF-295 CNS) was over 100 µM and the GI50 (U251 glioblastoma) was over 100 µM. The TGI (U251 glioblastoma) was over 100 µM, the GI50 (M14 melanoma) was over 100 µM and the TGI (M14 melanoma) was over 100 µM. For the same molecule, the GI50 (UO-31 renal) was over 100 µM, the TGI (UO-31 renal) was over 100 µM and the GI50 (MDA-MB-435 melanoma) was over 100 µM. The TGI (MDA-MB-435 melanoma) was over 100 µM, the GI50 (SW-620 colon) was over 100 µM and the TGI (SW-620 colon) was over 100 µM. For the same molecule, the GI50 (SF-268 CNS) was over 100 µM, the TGI (SF-268 CNS) was over 100 µM and the GI50 (OVCAR-8 ovarian) was over 100 µM. For the same molecule, the TGI (OVCAR-8 ovarian) was over 100 µM, the GI50 (SR leukemia) was over 100 µM and the TGI (SR leukemia) was over 100 µM. For the same molecule, the GI50 (DU-145 prostate) was over 100 µM, the TGI (DU-145 prostate) was over 100 µM and the GI50 (MDA-MB-231 breast) was over 100 µM. It also gave a TGI (MDA-MB-231 breast) of over 100 µM, a GI50 (SNB-75 CNS) of over 100 µM and a TGI (SNB-75 CNS) of over 100 µM. The GI50 (UACC-257 melanoma) was over 100 µM, the TGI (UACC-257 melanoma) was over 100 µM and the GI50 (KM12 colon) was over 100 µM. The TGI (KM12 colon) was over 100 µM, the GI50 (T-47D breast) was over 100 µM and the TGI (T-47D breast) was over 100 µM. It also gave a GI50 (SK-OV-3 ovarian) of over 100 µM, a TGI (SK-OV-3 ovarian) of over 100 µM and a GI50 (SN12C renal) of over 100 µM. For the same molecule, the TGI (SN12C renal) was over 100 µM, the GI50 (SK-MEL-28 melanoma) was over 100 µM and the TGI (SK-MEL-28 melanoma) was over 100 µM. It also gave a GI50 (A498 renal) of over 100 µM, a TGI (A498 renal) of over 100 µM and a GI50 (RXF 393 renal) of over 100 µM. For the same molecule, the TGI (RXF 393 renal) was over 100 µM, the GI50 (786-0 renal) was over 100 µM and the TGI (786-0 renal) was over 100 µM. The GI50 (OVCAR-3 ovarian) was over 100 µM, the TGI (OVCAR-3 ovarian) was over 100 µM and the GI50 (MDA-MB-468 breast) was over 100 µM. The TGI (MDA-MB-468 breast) was over 100 µM, the GI50 (OVCAR-4 ovarian) was over 100 µM and the TGI (OVCAR-4 ovarian) was over 100 µM. The GI50 (NCI-H226 lung) was over 100 µM, the TGI (NCI-H226 lung) was over 100 µM and the GI50 (HOP-62 NSCLC) was over 100 µM. It also gave a TGI (HOP-62 NSCLC) of over 100 µM.
